Earlier results on 14 compounds are cited in patent US20170173059A1, “Novel Combination of Naturally Occurring Compounds to Assist With Suspected Mycobacterial Infections Related to Autoimmune Conditions” (priority 2015, published 2017).

“Also recorded” adds a separate entry of the source. Like-named read-outs stand apart in the source and are kept apart here.

In one series the test system is MAP. The conditions noted are these: bovine and human MAP strains, radiometric culture.
For series [1] the following is noted: material data safety sheets / classification.
The test system of series [2] is Mycobacterium avium subspecies paratuberculosis (MAP). To be noted: selected strains of MAP.
The test system of series [3] is multidrug resistance pumps (MDR pumps).
For series [4], the system named is patients with inflammatory bowel disease. The conditions noted are these: Boswellia group versus sulfasalazine control group.
For the next series, the system named is M. avium. The conditions noted are these: radiometric culture.
The subject of the next series is M.Tb. The conditions noted are these: radiometric culture.
The next series deals with T1, 5-lipoxygenase (Homo sapiens, UniProt P09917).
T1 sequence (P09917 1-674): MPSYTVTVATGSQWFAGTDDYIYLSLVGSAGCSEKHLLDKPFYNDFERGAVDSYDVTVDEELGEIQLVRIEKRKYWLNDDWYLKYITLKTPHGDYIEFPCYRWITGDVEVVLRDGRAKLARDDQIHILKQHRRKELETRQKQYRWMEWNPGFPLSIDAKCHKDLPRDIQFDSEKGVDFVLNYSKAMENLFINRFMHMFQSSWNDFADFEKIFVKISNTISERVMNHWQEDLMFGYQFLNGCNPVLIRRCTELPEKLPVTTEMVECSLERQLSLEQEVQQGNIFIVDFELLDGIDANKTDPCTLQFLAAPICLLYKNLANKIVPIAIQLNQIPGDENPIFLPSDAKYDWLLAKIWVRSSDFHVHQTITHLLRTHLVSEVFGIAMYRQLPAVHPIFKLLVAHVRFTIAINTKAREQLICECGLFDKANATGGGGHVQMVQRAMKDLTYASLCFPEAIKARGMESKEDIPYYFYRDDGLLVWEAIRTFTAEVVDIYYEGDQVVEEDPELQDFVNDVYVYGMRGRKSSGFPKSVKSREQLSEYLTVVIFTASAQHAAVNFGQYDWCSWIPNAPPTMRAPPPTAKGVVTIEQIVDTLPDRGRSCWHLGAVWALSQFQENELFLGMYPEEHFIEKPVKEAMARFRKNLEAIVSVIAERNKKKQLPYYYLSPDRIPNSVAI

On to Vitamin A, for which the “inhibition of MAP strains in vitro” value in the series on MAP was “in vitro inhibition”; in the series with MAP (listed as vitamin A), “found to inhibit”.

In the case of `O=CC=Cc1ccccc1` [Cinnamaldehyde], the “safety listing (GRAS)” value in [1] is recorded as “GRAS”. In series [2], the “inhibition of MAP in vitro” value was “shown to inhibit”.

For `Cc1ncc([N+](=O)[O-])n1CCO` [Metronidazole], in the series on family of mycobacteria, the “action against the family of mycobacteria” value was “little to no action”.

For `C=C1CC[C@H](O)C/C1=C/C=C1\CCC[C@]2(C)[C@@H]([C@H](C)CCCC(C)C)CC[C@@H]12` [Vitamin D3, cholecalciferol], the “anti-neoplastic activity in colon tissue” value with colon tissue is recorded as “specific anti-neoplastic activity”; with colon tissue (listed as D3), “protect against neoplastic development”. Also, the “inhibition of MAP strains in vitro” value in the series on MAP is “shown inhibition”.

In the case of `COc1cc(C2Oc3cc(-c4cc(=O)c5c(O)cc(O)cc5o4)ccc3OC2CO)cc(OC)c1O` (stereo not drawn) [Example 5-MHC, 5-methoxyhydnocarpin], in [3], the “multi-drug resistance pump inhibition” value was “multi-drug resistance pump inhibitor”.

Take `CC1=C(/C=C/C(C)=C/C=C/C(C)=C/C=C/C=C(C)/C=C/C=C(C)/C=C/C2=C(C)CCCC2(C)C)C(C)(C)CCC1` [β carotene]: in the series with MAP, the “inhibition of MAP strains in vitro” value was “inhibitory effects”.

On to `O=C(O)c1cc(/N=N/c2ccc(S(=O)(=O)Nc3ccccn3)cc2)ccc1O` [sulfasalazine], for which, in series [4], the remission rates is reported as 75%.

With `CC[C@@]1([C@@H]2O[C@@H]([C@H]3O[C@@](O)(CO)[C@H](C)C[C@@H]3C)C[C@@H]2C)CC[C@H]([C@]2(C)CC[C@]3(C[C@H](O)[C@@H](C)[C@@H]([C@@H](C)[C@@H](OC)[C@H](C)C(=O)O)O3)O2)O1` [Monensin], the “inhibition of MAP strains in vitro” value in the series with MAP is recorded as “displayed inhibition of MAP”.

`CC1(C)S[C@@H]2[C@H](NC(=O)[C@H](N)c3ccc(O)cc3)C(=O)N2[C@H]1C(=O)O` [Amoxicillin]: the “action against the family of mycobacteria” value in the series with family of mycobacteria is recorded as “little to no action”.

For the compound `CC(=O)OC/C=C(C)/C=C/C=C(C)/C=C/C1=C(C)CCCC1(C)C` [retinyl acetate], the “inhibition of MAP strains in vitro” value in the series with MAP is listed as “inhibitory effects; also recorded: highest inhibition of the group”.

Turning to `CC1=C(/C=C/C(C)=C/C=C/C(C)=C/CO)C(C)(C)CCC1` [Retinol, (2E,4E,6E,8E)-3,7-Dimethyl-9-(2,6,6-trimethyl-cyclohex-1-enyl)-nona-2,4,6,8-tetraen-1-ol], in the series on M. avium, the “inhibition of M. avium” value is on record as “strong inhibitory effect”. The “inhibition of M.Tb” value in the series with M.Tb is listed as “strong inhibitory effect”. Further, in the series with MAP, the “inhibition of MAP strains in vitro” value is reported as “strong inhibitory effect”.

For `CC(=O)O[C@@H]1CC[C@@]2(C)[C@@H](CC[C@]3(C)[C@@H]2C(=O)C=C2[C@@H]4[C@@H](C)[C@H](C)CC[C@]4(C)CC[C@]23C)[C@@]1(C)C(=O)O` [acetyl-11-keto-beta-boswellic acid], at 5-lipoxygenase, the “effect on 5-lipoxygenase” value is “influenced”.

On to `O=C/C=C/c1ccccc1` [Trans-cinnamaldehyde], for which the “safety listing (GRAS)” value in series [1] is reported as “GRAS”. Also, in series [2], the “inhibition of MAP in vitro” value was “shown to inhibit”.

For `CC1=C(/C=C/C(C)=C/C=C/C(C)=C\C(=O)O)C(C)(C)CCC1` [13 cis-retinoic acid], in the series on MAP, the “inhibition of MAP strains in vitro” value was “inhibitory effects”.
